Assay results taken from US20240158446A1, “CYCLIC COMPOUND HAVING SELECTIVE INHIBITORY ACTION ON KRAS OVER HRAS AND NRAS” (CHUGAI SEIYAKU KABUSHIKI KAISHA, priority 2021, published 2024).
*1 amine or outer side, *2 acyl side, *3 side chain or, on linkers, in order; H or OH if unused. Where a SMILES comes first, the peptide text is derived from it. Bridges are numbered along the chain shown (N, C = ends). [ ]: non-standard residue; d: D form. The star is where a group is joined. hPhe(3,5-F2-4-CF3) = N[C@@H](CCc1cc(F)c(C(F)(F)F)c(F)c1)C(=O)O; hPhe(3-Cl-4-CF3) = N[C@@H](CCc1ccc(C(F)(F)F)c(Cl)c1)C(=O)O; X49 = CCCN([C@@H](Cc1ccc(OCC=[*:3])cc1)C(=O)[*:2])[*:1]; NPrPhe(4-CF3) = CCCN[C@@H](Cc1ccc(C(F)(F)F)cc1)C(=O)O; NEtPhe(4-CF3) = CCN[C@@H](Cc1ccc(C(F)(F)F)cc1)C(=O)O; Pro(4-spirocPr) = O=C(O)[C@@H]1CC2(CC2)CN1; X48 = CN([C@@H](CCC=[*:3])C(=O)[*:2])[*:1]; X33 = C[C@@H]1CN([*:1])[C@@H]1C(=O)[*:2]; NMeGly(cPent) = CN[C@H](C(=O)O)C1CCCC1; X8 = C[C@@](N[*:1])(C(=O)[*:2])C1CC1; X11 = CCC[C@](C)(N[*:1])C(=O)[*:2]; Hyp = O=C(O)[C@@H]1C[C@@H](O)CN1; NMeD = CN[C@@H](CC(=O)O)C(=O)O; NMeL = CN[C@@H](CC(C)C)C(=O)O; Morpholide = C1CN(*)CCO1; Ac5c = NC1(C(=O)O)CCCC1; Aze = O=C(O)[C@@H]1CCN1; Ac4c = NC1(C(=O)O)CCC1; Ac3c = NC1(C(=O)O)CC1; Sar = CNCC(=O)O

Tests used:
[1] = molecular target: GDP-bound NRAS wild-type protein (Homo sapiens, UniProt P01111); assay: Binding to NRAS by surface plasmon resonance (SPR), Single Cycle Kinetics; conditions: SPR, GDP-bound NRAS wild-type protein vs GDP-bound KRAS wild-type protein
GDP-bound NRAS wild-type protein, sequence (P01111 whole entry): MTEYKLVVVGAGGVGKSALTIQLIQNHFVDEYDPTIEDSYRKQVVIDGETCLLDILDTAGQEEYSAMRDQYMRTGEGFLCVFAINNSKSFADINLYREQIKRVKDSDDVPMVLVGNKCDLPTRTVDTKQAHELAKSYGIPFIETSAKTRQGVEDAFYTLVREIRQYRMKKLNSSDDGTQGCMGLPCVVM

[2] = molecular target: GDP-bound HRAS wild-type protein (Homo sapiens, UniProt P01112); assay: Binding to HRAS by surface plasmon resonance (SPR), Single Cycle Kinetics; conditions: SPR, GDP-bound HRAS wild-type protein vs GDP-bound KRAS wild-type protein
GDP-bound HRAS wild-type protein, sequence (P01112 whole entry): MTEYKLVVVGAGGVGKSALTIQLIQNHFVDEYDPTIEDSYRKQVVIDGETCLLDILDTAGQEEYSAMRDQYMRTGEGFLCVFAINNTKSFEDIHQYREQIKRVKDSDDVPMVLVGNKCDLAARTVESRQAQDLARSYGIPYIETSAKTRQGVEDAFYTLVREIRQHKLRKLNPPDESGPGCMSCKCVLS

[3] = system: human lung cancer strain NCI-H441;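 note: cell proliferation inhibition after four days measured by CellTiter-Glo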

Structure (SMILES) | NRAS/KRAS (ratio of KD value with respect to NRAS to KD value with respect to KRAS) [1] | HRAS/KRAS (ratio of KD value with respect to HRAS to KD value with respect to KRAS) [2] | IC50 [3] [nM] | NRAS/KRAS (ratio of KD value for NRAS to KD value for KRAS) [1] | HRAS/KRAS (ratio of KD value for HRAS to KD value for KRAS) [2]
CCCN1C(=O)CN(C)C(=O)[C@@H]2CCN2C(=O)[C@H]([C@@H](C)CC)NC(=O)[C@H](CC(C)C)N(C)C(=O)C[C@@H](C(=O)N2CCOCC2)N(C)C(=O)[C@H](C2CCCC2)N(C)C(=O)[C@](C)(CCC)NC(=O)[C@@H]2CCCN2C(=O)[C@H](CCc2cc(F)c(C(F)(F)F)c(F)c2)NC(=O)CN(C)C(=O)[C@@H]1Cc1ccc(C(F)(F)F)cc1 [PP0775] ([NMeL]I[Aze][Sar][NPrPhe(4-CF3)][Sar][hPhe(3,5-F2-4-CF3)]P[X11][NMeGly(cPent)][NMeD]-Morpholide; lactam N-11) | B (a compound having 3 or more and less than 10 is denoted as B) | B (a compound having 3 or more and less than 10 is denoted as B) | 417 |  | 
CCCN1C(=O)CN(C)C(=O)[C@@H]2CCN2C(=O)[C@H]([C@@H](C)CC)NC(=O)[C@H](CC(C)C)N(C)C(=O)C[C@@H](C(=O)N2CCOCC2)N(C)C(=O)[C@H](C2CCCC2)N(C)C(=O)C2(CCCC2)NC(=O)[C@@H]2CC3(CC3)CN2C(=O)[C@H](CCc2ccc(C(F)(F)F)c(Cl)c2)NC(=O)CN(C)C(=O)[C@@H]1Cc1ccc(C(F)(F)F)cc1 [PP0308] ([NMeL]I[Aze][Sar][NPrPhe(4-CF3)][Sar][hPhe(3-Cl-4-CF3)][Pro(4-spirocPr)][Ac5c][NMeGly(cPent)][NMeD]-Morpholide; lactam N-11) |  |  | 56 | B (a compound having 3 or more and less than 10 is denoted as B) | B (a compound having 3 or more and less than 10 is denoted as B)
CCCN1C(=O)CN(C)C(=O)[C@@H]2[C@H](C)CN2C(=O)[C@H]([C@@H](C)CC)NC(=O)[C@H](CC(C)C)N(C)C(=O)C[C@@H](C(=O)N2CCOCC2)N(C)C(=O)[C@H](C2CCCC2)N(C)C(=O)C2(CCCC2)NC(=O)[C@@H]2CCCN2C(=O)[C@H](CCc2ccc(C(F)(F)F)c(Cl)c2)NC(=O)CN(C)C(=O)[C@@H]1Cc1ccc(C(F)(F)F)cc1 [PP0257] ([NMeL]I[X33][Sar][NPrPhe(4-CF3)][Sar][hPhe(3-Cl-4-CF3)]P[Ac5c][NMeGly(cPent)][NMeD]-Morpholide; lactam N-11) |  |  | 30.8 | B (a compound having 3 or more and less than 10 is denoted as B) | B (a compound having 3 or more and less than 10 is denoted as B)
CCCN1C(=O)CN(C)C(=O)CN(C)C(=O)[C@H]([C@@H](C)CC)NC(=O)[C@@H]2CCC=CCOc3ccc(cc3)C[C@H]1C(=O)N(C)CC(=O)N[C@@H](CCc1cc(F)c(C(F)(F)F)c(F)c1)C(=O)N1C[C@H](OCC)C[C@H]1C(=O)NC1(CCCC1)C(=O)N(C)[C@@H](C1CCCC1)C(=O)N(C)[C@H](C(=O)N(C)C)CC(=O)N2C [PP0900] ([X48]I[Sar][Sar][X49][Sar][hPhe(3,5-F2-4-CF3)][Hyp](Et)[Ac5c][NMeGly(cPent)][NMeD]-NMe2; staple 1-5; lactam N-11) |  |  | 4.9 | C (A compound having a KD ratio of 0.1 or more and less than 3 is denoted as C) | C (A compound having a KD ratio of 0.1 or more and less than 3 is denoted as C)
CCCN1C(=O)CN(C)C(=O)CN(C)C(=O)[C@H]([C@@H](C)CC)NC(=O)[C@@H]2COCCCC[C@@](C)(NC(=O)[C@@H]3C[C@@H](OCC)CN3C(=O)[C@H](CCc3cc(F)c(C(F)(F)F)c(F)c3)NC(=O)CN(C)C(=O)[C@@H]1Cc1ccc(C(F)(F)F)cc1)C(=O)N(C)[C@@H](C1CCCC1)C(=O)N(C)[C@H](C(=O)N1CCOCC1)CC(=O)N2C [PP0899] |  |  | 923 | A (a compound having 10 or more and less than 20 is denoted as A) | B (a compound having 3 or more and less than 10 is denoted as B)
CC[C@H](C)[C@@H]1NC(=O)[C@H](CC(C)C)N(C)C(=O)C[C@@H](C(=O)N2CCOCC2)N(C)C(=O)[C@H](C2CCCC2)N(C)C(=O)C2(CCC2)NC(=O)[C@@H]2[C@H]3C[C@H]3CN2C(=O)[C@H](CCc2cc(F)c(C(F)(F)F)c(F)c2)NC(=O)CN(C)C(=O)[C@H](Cc2ccc(C(F)(F)F)cc2)N2CCCCC[C@@H](C2=O)N(C)C(=O)CN(C)C1=O [PP0819] |  |  | 75.7 | A (a compound having 10 or more and less than 20 is denoted as A) | B (a compound having 3 or more and less than 10 is denoted as B)
CCO[C@@H]1C[C@H]2C(=O)NC3(CCC3)C(=O)N(C)[C@@H](C3CCCC3)C(=O)N(C)[C@H](C(=O)N(C)C)CC(=O)N(C)[C@@H](CC)C(=O)N[C@@H]([C@@H](C)CC)C(=O)N(C)CC(=O)N(C)[C@H]3CCCCCN(C3=O)[C@@H](Cc3ccc(F)c(F)c3)C(=O)N(C)CC(=O)N[C@@H](CCc3cc(F)c(C(F)(F)F)c(F)c3)C(=O)N2C1 [PP0907] |  |  | 24.8 | B (a compound having 3 or more and less than 10 is denoted as B) | B (a compound having 3 or more and less than 10 is denoted as B)
CCCN1C(=O)CN(C)C(=O)[C@@H]2CCN2C(=O)[C@H]([C@@H](C)CC)NC(=O)[C@H](CC(C)C)N(C)C(=O)C[C@@H](C(=O)N2CCOCC2)N(C)C(=O)[C@H](C2CCCC2)N(C)C(=O)[C@](C)(C2CC2)NC(=O)[C@@H]2CCCN2C(=O)[C@H](CCc2cc(F)c(C(F)(F)F)c(F)c2)NC(=O)CN(C)C(=O)[C@@H]1Cc1ccc(C(F)(F)F)cc1 [PP0772] ([NMeL]I[Aze][Sar][NPrPhe(4-CF3)][Sar][hPhe(3,5-F2-4-CF3)]P[X8][NMeGly(cPent)][NMeD]-Morpholide; lactam N-11) | B (a compound having 3 or more and less than 10 is denoted as B) | B (a compound having 3 or more and less than 10 is denoted as B) | 434 |  | 
CC[C@H](C)[C@@H]1NC(=O)[C@@H](CC(C)C)N(C)C(=O)C[C@@H](C(=O)N(C)C)N(C)C(=O)[C@@H](C2CCCC2)N(C)C(=O)C2(CCCC2)NC(=O)[C@@H]2CCCN2C(=O)[C@H](CCc2ccc(C(F)(F)F)c(Cl)c2)NC(=O)CN(C)C(=O)[C@@H](Cc2ccc(C(F)(F)F)cc2)N2CC/C=C\CCN(CC2=O)C(=O)CN(C)C1=O [PP0619] | C (A compound having a KD ratio of 0.1 or more and less than 3 is denoted as C) | C (A compound having a KD ratio of 0.1 or more and less than 3 is denoted as C) | 70.7 |  | 
CCO[C@@H]1C[C@H]2C(=O)NC3(CCC3)C(=O)N(C)[C@@H](C3CCCC3)C(=O)N(C)[C@H](C(=O)N3CCOCC3)CC(=O)N(C)[C@@H](CC(C)C)C(=O)N[C@@H]([C@@H](C)CC)C(=O)N(C)CC(=O)N(C)[C@H]3CCCCCN(C3=O)[C@@H](Cc3nccs3)C(=O)N(C)CC(=O)N[C@@H](CCc3cc(F)c(C(F)(F)F)c(F)c3)C(=O)N2C1 [PP0923] |  |  | 445 | B (a compound having 3 or more and less than 10 is denoted as B) | B (a compound having 3 or more and less than 10 is denoted as B)
CC[C@H](C)[C@@H]1NC(=O)[C@H](CC(C)C)N(C)C(=O)C[C@@H](C(=O)N2CCOCC2)N(C)C(=O)[C@H](C2CCCC2)N(C)C(=O)C2(CCCC2)NC(=O)[C@@H]2CCCN2C(=O)[C@H](CCc2ccc(C(F)(F)F)c(Cl)c2)NC(=O)CN(C)C(=O)[C@H](Cc2ccc(F)cc2)N2C/C=C\CC[C@@H](C2=O)N(C)C(=O)CN(C)C1=O [PP0607] | C (A compound having a KD ratio of 0.1 or more and less than 3 is denoted as C) | B (a compound having 3 or more and less than 10 is denoted as B) | 119 |  | 
CCCN1C(=O)CN(C)C(=O)[C@@H]2CCN2C(=O)[C@H]([C@@H](C)CC)NC(=O)[C@H](CC(C)C)N(C)C(=O)C[C@@H](C(=O)N(C)C)NC(=O)[C@H](C2CCCC2)N(C)C(=O)C2(CCC2)NC(=O)[C@@H]2C[C@@H](OCC)CN2C(=O)[C@H](CCc2ccc(C(F)(F)F)c(Cl)c2)NC(=O)CN(C)C(=O)[C@@H]1Cc1ccc(C(F)(F)F)cc1 [PP0378] ([NMeL]I[Aze][Sar][NPrPhe(4-CF3)][Sar][hPhe(3-Cl-4-CF3)][Hyp](Et)[Ac4c][NMeGly(cPent)]D-NMe2; lactam N-11) |  |  | 110 | B (a compound having 3 or more and less than 10 is denoted as B) | B (a compound having 3 or more and less than 10 is denoted as B)
CC[C@H](C)[C@@H]1NC(=O)[C@H](CC(C)C)N(C)C(=O)C[C@@H](C(=O)N2CCOCC2)N(C)C(=O)[C@H](C2CCCC2)N(C)C(=O)C2(CC2)NC(=O)[C@@H]2CCCN2C(=O)[C@H](CCc2ccc(C(F)(F)F)c(Cl)c2)NC(=O)CN(C)C(=O)[C@H](Cc2ccc(C(F)(F)F)cc2)N(CC)C(=O)CN(C)C(=O)CN(C)C1=O [PP0234] ([NMeL]I[Sar][Sar][NEtPhe(4-CF3)][Sar][hPhe(3-Cl-4-CF3)]P[Ac3c][NMeGly(cPent)][NMeD]-Morpholide; lactam N-11) |  |  | 49.9 | B (a compound having 3 or more and less than 10 is denoted as B) | C (A compound having a KD ratio of 0.1 or more and less than 3 is denoted as C)
